# Data taken from patent US11912671B1, “Ethyl 3-(5-(3-fluorophenyl)-4-phenyl-4H-1,2,4- triazol-3-ylthio)propanoate as an antimicrobial compound” (KING FAISAL UNIVERSITY, priority 2023, dated 2024).
# Columns and labels:
# Assay type in all cases: cell-based
# Bacillus cereus = assay: agar plate disc-diffusion, antibacterial inhibition zone; settings: nutrient agar, 37° C., 48 hours
# Procedure: (§1) The agar plate disc-diffusion method was applied. […] The discs were then placed onto the surface of agar plates (nutrient agar for bacteria and Sabouraud's dextrose agar for fungi) seeded with the test organism. Each plate contained 15 mL of the agar medium, previously seeded with 0.2 mL of the broth culture of each organism pregrown for 18 hours. The plates were incubated at 37° C. for 48 hours, and 72 hours for fungi. The inhibition zones were measured in mm. Discs impregnated with DMSO were used as a control, and its inhibition zone was subtracted from the tested compound actual inhibition zone.
# Escherichia coli = assay: as above; settings: nutrient agar, 37° C., 48 hours
# Procedure: as §1
# Pseudomonas aeruginosa = assay: as above; settings: nutrient agar, 37° C., 48 hours
# Procedure: as §1
# Staphylococcus aureus = assay: as above; settings: nutrient agar, 37° C., 48 hours
# Procedure: as §1
# Aspergillus flavus = assay: agar plate disc-diffusion, antifungal inhibition zone; settings: Sabouraud's dextrose agar, 72 hours
# Procedure: as §1
# [1] = test system: Chrysosporium keratinophilum; assay: as above; settings: Sabouraud's dextrose agar, 72 hours
# Procedure: as §1
# [2] = A = concentration of comp. = 10,000 μL
# [3] = B = concentration of comp. = 30,000 μL
# [4] = C = concentration of comp. = 50,000 μL
compound,measurement,setting,value
"CCOC(=O)CCSc1nnc(-c2cccc(F)c2)n1-c1ccccc1 [III, ethyl 3-(5-(3-fluorophenyl)-4-phenyl-4H-1,2,4-triazol-3-ylthio)propanoate]","inhibition zone, Bacillus Cereus, A",Bacillus cereus; [2],25 mm
same,"inhibition zone, Bacillus Cereus, B",Bacillus cereus; [3],28 mm
same,"inhibition zone, Bacillus Cereus, C",Bacillus cereus; [4],38 mm
same,"inhibition zone, Escherichia coli, A",Escherichia coli; [2],27 mm
same,"inhibition zone, Escherichia coli, B",Escherichia coli; [3],36 mm
same,"inhibition zone, Escherichia coli, C",Escherichia coli; [4],53 mm
same,"inhibition zone, Pseudomonas aeruginosa, A",Pseudomonas aeruginosa; [2],26 mm
same,"inhibition zone, Pseudomonas aeruginosa, B",Pseudomonas aeruginosa; [3],29 mm
same,"inhibition zone, Pseudomonas aeruginosa, C",Pseudomonas aeruginosa; [4],46 mm
same,"inhibition zone, Staphylococcus aureus, A",Staphylococcus aureus; [2],17 mm
same,"inhibition zone, Staphylococcus aureus, B",Staphylococcus aureus; [3],21 mm
same,"inhibition zone, Staphylococcus aureus, C",Staphylococcus aureus; [4],30 mm
same,"inhibition zone, Aspergillus flavus, A",Aspergillus flavus; [2],25 mm
same,"inhibition zone, Aspergillus flavus, B",Aspergillus flavus; [3],28 mm
same,"inhibition zone, Aspergillus flavus, C",Aspergillus flavus; [4],34 mm
same,"inhibition zone, Chrysosporium keratinophilum, A",[1]; [2],26 mm
same,"inhibition zone, Chrysosporium keratinophilum, B",[1]; [3],28 mm
same,"inhibition zone, Chrysosporium keratinophilum, C",[1]; [4],46 mm
